Experimental data reported in paper PMC11149917, “Translational and Therapeutic Evaluation of RAS-GTP Inhibition by RMC-6236 in RAS-Driven Cancers” (Cancer Discovery, 2024).
Several values for one entry are separate records, joined by “and”; a condition that tells them apart may be missing. Equal values may be shown once. Read-outs that look alike come from different tables or passages of the source.

Assay: Mouse blood and tissue PK (LC/MS-MS)
Assay type: in vivo
Settings: for AUC(0-t): read-out: Blood AUClast; for half-life: read-out: Blood t1/2 (converted); for concentration at 4 h: read-out: RMC-6236 (nM) Tumor
Description: For single-dose PKPD study, mice were randomized and assigned into groups (n = 3/dose/time point). […] Blood and tissues, including the tumor, brain, colon, ear skin, and muscle, were harvested at indicated time points. […] The whole blood, tumor, brain, colon, and ear skin concentrations of RMC-6236 were determined using liquid chromatography–tandem mass spectrometry (LC/MS-MS) methods. […] After thorough mixing and centrifugation, the supernatant was diluted with water or directly analyzed on a Sciex 5500 or Sciex 6500+ triple quadrupole mass spectrometer equipped with an ACQUITY or Shimadzu UPLC system. […] Bioanalysis on blood and tissue samples from xenograft models was run at Pharmaron and Wuxi AppTec. Concentrations reported as below the quantification limit were treated as zero for PK analysis. PK parameters were calculated by noncompartmental analysis of the concentration–time profiles using Phoenix WinNonLin (version 8.3 Certara). Apparent terminal elimination half-life (t1/2) values were calculated as ln(2)/k, where k represents the terminal elimination rate constant. Area under the concentration–time curve (AUC) values were estimated using a linear trapezoidal method. AUClast values were calculated from the dosing time to the last quantifiable concentration. Maximum concentration (Cmax) was recorded as observed.

[1] = Balb/c nude, mouse, whole blood, po, 25 mg/kg, LU99-luc IC (25 mg/kg), single dose
[2] = Balb/c nude, mouse, whole blood, sc, 25 mg/kg, LU99-luc SC (25 mg/kg), single dose
[3] = Capan-2 (10 mg/kg), single dose
[4] = Capan-2 (25 mg/kg), single dose
[5] = LU99-luc IC #2 (25 mg/kg), adjacent normal brain
[6] = LU99-luc IC #2 (25 mg/kg), intracranial tumor
[7] = LU99-luc IC (25 mg/kg), intracranial tumor
[8] = LU99-luc SC (25 mg/kg), subcutaneous xenograft tumor
[9] = NCI-H358 (25 mg/kg), single dose
[10] = NCI-H441 #2 (25 mg/kg), QD x 10 days
[11] = NCI-H441 (3 mg/kg), single dose
[12] = NCI-H441 (10 mg/kg), single dose
[13] = NCI-H441 (25 mg/kg), single dose

SMILES: CCn1c(-c2cc(N3CCN(C)CC3)cnc2[C@H](C)OC)c2c3cc(ccc31)-c1csc(n1)C[C@H](NC(=O)[C@H]1C[C@@H]1C)C(=O)N1CCC[C@H](N1)C(=O)OCC(C)(C)C2 [RMC-6236]
- AUC(0-t) [1]: 16700 ng·h/mL
- half-life [1]: 3.81 h
- Cmax [2]: 1650 ng/mL
- AUC(0-t) [2]: 18600 ng·h/mL
- half-life [2]: 3.13 h
- Tumor AUClast (Capan-2 (3 mg/kg), single dose): 5138 ng·h/mL
- Tumor Cmax (Capan-2 (3 mg/kg), single dose): 218 ng/mL
- Tumor AUClast [3]: 23425 ng·h/mL
- Tumor Cmax [3]: 906 ng/mL
- Tumor AUClast [4]: 66696 ng·h/mL
- Tumor Cmax [4]: 3000 ng/mL
- concentration at 4 h (Capan-2, study Capan-2 #3_PHA 2020, 0.3 mg/kg, 2h): 21.6 nM and 12.8 nM
- concentration at 4 h (Capan-2, study Capan-2 #3_PHA 2020, 0.3 mg/kg, 8h): 15.8 nM and 20.9 nM
- concentration at 4 h (Capan-2, study Capan-2 #3_PHA 2020, 0.3 mg/kg, 24h): 7.5 nM and 9 nM
- RMC-6236 (nM) Tumor (Capan-2, study Capan-2 #3_PHA 2020, 0.3 mg/kg, 48h): BQL
- concentration at 4 h (Capan-2, study Capan-2 #3_PHA 2020, 3 mg/kg, 2h): 206 nM and 213 nM
- concentration at 4 h (Capan-2, study Capan-2 #3_PHA 2020, 3 mg/kg, 8h): 232 nM and 155 nM
- concentration at 4 h (Capan-2, study Capan-2 #3_PHA 2020, 3 mg/kg, 24h): 93 nM and 106 nM
- concentration at 4 h (Capan-2, study Capan-2 #3_PHA 2020, 3 mg/kg, 48h): 29 nM and 32 nM
- concentration at 4 h (Capan-2, study Capan-2 #3_PHA 2020, 10 mg/kg, 2h): 735 nM and 868 nM
- concentration at 4 h (Capan-2, study Capan-2 #3_PHA 2020, 10 mg/kg, 8h): 784 nM and 1189 nM
- concentration at 4 h (Capan-2, study Capan-2 #3_PHA 2020, 10 mg/kg, 24h): 388 nM and 425 nM
- concentration at 4 h (Capan-2, study Capan-2 #3_PHA 2020, 10 mg/kg, 48h): 127 nM and 106 nM
- concentration at 4 h (Capan-2, study Capan-2 #3_PHA 2020, 25 mg/kg, 2h): 1563 nM and 2949 nM
- concentration at 4 h (Capan-2, study Capan-2 #3_PHA 2020, 25 mg/kg, 8h): 2249 nM and 3216 nM
- concentration at 4 h (Capan-2, study Capan-2 #3_PHA 2020, 25 mg/kg, 24h): 1455 nM and 1672 nM
- concentration at 4 h (Capan-2, study Capan-2 #3_PHA 2020, 40 mg/kg, 2h): 6510 nM and 4764 nM
- concentration at 4 h (Capan-2, study Capan-2 #3_PHA 2020, 40 mg/kg, 8h): 4542 nM and 4547 nM
- concentration at 4 h (Capan-2, study Capan-2 #3_PHA 2020, 40 mg/kg, 24h): 2254 nM
- concentration at 4 h (Capan-2, study Capan-2 #3_PHA 2023, 3 mg/kg, 2h): 210.835 nM and 145.489 nM
- concentration at 4 h (Capan-2, study Capan-2 #3_PHA 2023, 3 mg/kg, 4h): 272.483 nM and 245.358 nM
- concentration at 4 h (Capan-2, study Capan-2 #3_PHA 2023, 3 mg/kg, 8h): 266.318 nM and 212.068 nM
- concentration at 4 h (Capan-2, study Capan-2 #3_PHA 2023, 3 mg/kg, 24h): 131.926 nM and 103.198 nM
- concentration at 4 h (Capan-2, study Capan-2 #3_PHA 2023, 3 mg/kg, 48h): 42.167 nM and 42.4136 nM
- concentration at 4 h (Capan-2, study Capan-2 #3_PHA 2023, 10 mg/kg, 2h): 596.75 nM and 1028.28 nM
- concentration at 4 h (Capan-2, study Capan-2 #3_PHA 2023, 10 mg/kg, 4h): 1166.37 nM and 954.307 nM
- concentration at 4 h (Capan-2, study Capan-2 #3_PHA 2023, 10 mg/kg, 8h): 1105.96 nM and 773.062 nM
- concentration at 4 h (Capan-2, study Capan-2 #3_PHA 2023, 10 mg/kg, 24h): 401.943 nM and 517.841 nM
- concentration at 4 h (Capan-2, study Capan-2 #3_PHA 2023, 10 mg/kg, 48h): 125.761 nM and 157.818 nM
- concentration at 4 h (Capan-2, study Capan-2 #3_PHA 2023, 25 mg/kg, 2h): 1750.8 nM and 1824.77 nM
- concentration at 4 h (Capan-2, study Capan-2 #3_PHA 2023, 25 mg/kg, 4h): 5030.45 nM and 3020.74 nM
- concentration at 4 h (Capan-2, study Capan-2 #3_PHA 2023, 25 mg/kg, 8h): 2379.6 nM and 2700.17 nM
- concentration at 4 h (Capan-2, study Capan-2 #3_PHA 2023, 25 mg/kg, 24h): 1997.39 nM and 1442.56 nM
- concentration at 4 h (Capan-2, study Capan-2 #3_PHA 2023, 50 mg/kg, 2h): 5178.41 nM and 4956.48 nM
- concentration at 4 h (Capan-2, study Capan-2 #3_PHA 2023, 50 mg/kg, 4h): 6411.36 nM and 6731.93 nM
- concentration at 4 h (Capan-2, study Capan-2 #3_PHA 2023, 50 mg/kg, 8h): 6251.08 nM and 3945.45 nM
- concentration at 4 h (Capan-2, study Capan-2 #3_PHA 2023, 50 mg/kg, 24h): 2996.08 nM and 1775.45 nM
- concentration at 4 h (Capan-2, study Capan-2 #3_PHA 2023, 100 mg/kg, 2h): 9025.23 nM and 8877.27 nM
- concentration at 4 h (Capan-2, study Capan-2 #3_PHA 2023, 100 mg/kg, 4h): 16521.6 nM and 11417.2 nM
- concentration at 4 h (Capan-2, study Capan-2 #3_PHA 2023, 100 mg/kg, 8h): 14795.5 nM and 9185.51 nM
- concentration at 4 h (Capan-2, study Capan-2 #3_PHA 2023, 100 mg/kg, 24h): 4216.7 nM and 3328.98 nM
- concentration at 4 h (Capan-2, study Capan-2 #3_PHA 2023, 100 mg/kg, 48h): 1124.45 nM and 1331.59 nM
- concentration at 4 h (HPAC #3, 50 mg/kg, 24h, individual animals, 50 mg/kg): 3354 nM
- concentration at 4 h (HPAC #3, 50 mg/kg, 48h, individual animals, 50 mg/kg): 1332 nM and 1603 nM
- concentration at 4 h (HPAC #4, 3 mg/kg, 4h, individual animals, 3 mg/kg): 108 nM and 297 nM and 238 nM
- concentration at 4 h (HPAC #4, 3 mg/kg, 8h, individual animals, 3 mg/kg): 335 nM and 387 nM
- concentration at 4 h (HPAC #4, 3 mg/kg, 24h, individual animals, 3 mg/kg): 207 nM and 164 nM
- RMC-6236 (nM) Tumor (HPAC #4, 3 mg/kg, 48h, individual animals): BQL
- concentration at 4 h (HPAC #4, 3 mg/kg, 48h, individual animals, 3 mg/kg): 29.3 nM
- concentration at 4 h (HPAC #4, 10 mg/kg, 4h, individual animals, 10 mg/kg): 957 nM and 831 nM
- concentration at 4 h (HPAC #4, 10 mg/kg, 8h, individual animals, 10 mg/kg): 1566 nM and 1418 nM
- concentration at 4 h (HPAC #4, 10 mg/kg, 24h, individual animals, 10 mg/kg): 386 nM and 374 nM
- concentration at 4 h (HPAC #4, 10 mg/kg, 48h, individual animals, 10 mg/kg): 210 nM and 212 nM
- concentration at 4 h (HPAC #4, 25 mg/kg, 4h, individual animals, 25 mg/kg): 2897 nM and 4130 nM
- RMC-6236 (nM) Tumor (HPAC #11, 0.3 mg/kg, 4h, individual animals): BQL
- RMC-6236 (nM) Tumor (HPAC #11, 0.3 mg/kg, 8h, individual animals): BQL
- RMC-6236 (nM) Tumor (HPAC #11, 0.3 mg/kg, 24h, individual animals): BQL
- RMC-6236 (nM) Tumor (HPAC #11, 0.3 mg/kg, 48h, individual animals): BQL
- RMC-6236 (nM) Tumor (HPAC #11, 1 mg/kg, 24h, individual animals): BQL
- RMC-6236 (nM) Tumor (HPAC #11, 1 mg/kg, 48h, individual animals): BQL
- Tumor AUClast (HPAC (25 mg/kg), single dose): 79219 ng·h/mL
- Tumor Cmax (HPAC (25 mg/kg), single dose): 3007 ng/mL
- Tumor AUClast (KP-4 (25 mg/kg), single dose): 79463 ng·h/mL
- Tumor Cmax (KP-4 (25 mg/kg), single dose): 3582 ng/mL
- Brain AUClast [5]: 396 ng·h/mL
- Brain Cmax [5]: 63.2 ng/mL
- Tumor AUClast [6]: 2537 ng·h/mL
- Tumor Cmax [6]: 139 ng/mL
- Tumor AUClast [7]: 2004 ng·h/mL
- Tumor Cmax [7]: 142 ng/mL
- Tumor AUClast (h × ng/mL) [8]: 75128 #2 h × ng/mL
- Tumor Cmax (ng/mL) [8]: 2367 #2 ng/mL
- Tumor AUClast [9]: 51307 ng·h/mL
- Tumor Cmax [9]: 3083 ng/mL
- Tumor AUClast [10]: 32762 ng·h/mL
- Tumor Cmax [10]: 1527 ng/mL
- Tumor AUClast [11]: 6321 ng·h/mL
- Tumor Cmax [11]: 253 ng/mL
- Tumor AUClast [12]: 17526 ng·h/mL
- Tumor Cmax [12]: 821 ng/mL
- Tumor AUClast [13]: 55019 ng·h/mL
- Tumor Cmax [13]: 2083 ng/mL
- RMC-6236 (nM) Tumor (NCI-H441 xenograft tumor, study NCI-H441#10, 0.3 mg/kg, 48h): BQL
- RMC-6236 (nM) Tumor (NCI-H441 xenograft tumor, study NCI-H441#10, 1 mg/kg, 48h): BQL
- RMC-6236 (nM) Tumor (NCI-H441 xenograft tumor, study NCI-H441#13, 0.3 mg/kg, 24h): BQL
